In assay [1] the target is T1, Arabidopsis HPPD (SEQ ID NO:53) (Arabidopsis thaliana, UniProt P93836).
T1 construct: His6 (N); made in house; host or cells: E. coli BL21 (DE3)
T1 sequence (P93836 1-445): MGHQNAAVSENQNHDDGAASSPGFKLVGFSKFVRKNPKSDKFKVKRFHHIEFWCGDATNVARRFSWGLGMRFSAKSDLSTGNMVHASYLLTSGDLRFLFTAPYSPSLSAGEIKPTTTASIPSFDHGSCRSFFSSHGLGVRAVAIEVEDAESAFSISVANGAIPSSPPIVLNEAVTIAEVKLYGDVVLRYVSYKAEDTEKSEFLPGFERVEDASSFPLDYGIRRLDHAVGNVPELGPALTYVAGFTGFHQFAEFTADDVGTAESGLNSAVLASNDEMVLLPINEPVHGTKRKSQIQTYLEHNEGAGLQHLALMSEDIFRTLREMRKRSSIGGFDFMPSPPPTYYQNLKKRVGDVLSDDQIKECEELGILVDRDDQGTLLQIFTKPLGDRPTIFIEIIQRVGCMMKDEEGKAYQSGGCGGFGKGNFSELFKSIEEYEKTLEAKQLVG
Description: HPPD activity assay (HGA by HPLC), wildtype enzyme. It counts as biochemical. Conditions: Arabidopsis enzyme. The protocol: (§1) HPPD produces homogentisic acid and CO2 from 4-hydroxyphenylpyruvate (4-HPP) and O2. The activity assay for HPPD is based on the analysis of homogentisic acid by reversed phase HPLC.
(§2) The assay mixture can contain 150 mM potassium phosphate buffer pH 7.0, 50 mM L-ascorbic acid, 100 μM Catalase (Sigma-Aldrich), 1 μM FeSO4 and 0.2 units of purified HPPD enzyme in a total volume of 505 μl. 1 unit is defined as the amount of enzyme that is required to produce 1 nmol of HGA per minute at 20° C.
(§3) After a preincubation of 30 min the reaction is started by adding 4-HPP to a final concentration of 0.05 mM. The reaction is allowed to proceed for 45 min at room temperature. The reaction is stopped by the addition of 50 μl of 4.5 M phosphoric acid. The sample is filtered using a […] pore size PVDF filtration device.
(§4) 5 μl of the cleared sample is analyzed on an UPLC HSS T3 column (particle size 1.8 μm, dimensions 2.1×50 mm; Waters) by isocratic elution using 90% 20 mM NaH2PO4 pH 2.2, 10% methanol (v/v).
(§5) HGA is detected electrochemically at 750 mV (mode: DC; polarity: positive) and quantified by integrating peak areas (Empower software; Waters).
(§6) Inhibitors are dissolved in DMSO (dimethylsulfoxide) to a concentration of 0.5 mM. From this stock solution serial five-fold dilutions are prepared in DMSO, which are used in the assay. The respective inhibitor solution accounts for 1% of the assay volume. […] Activities are normalized by setting the uninhibited enzyme activity to 100%. IC50 values are calculated using non-linear regression.
(§7) Using methods which are described in the above examples or well known in the art, purified, recombinant wildtype HPPD enzymes are characterized with respect to their kinetic properties and sensitivity towards HPPD inhibiting herbicides. Apparent michaelis constants (Km) and maximal reaction velocities (Vmax) are calculated by non-linear regression with the software GraphPad Prism 5 (GraphPad Software, La Jolla, USA) using a substrate inhibition model. […] Weighted means (by standard error) of Km and IC50 values are calculated from at least three independent experiments.
(§8) Field performance of the HPPD enzyme, which is used as a herbicide tolerance trait may depend not only on its lack of sensitivity towards HPPD inhibiting herbicides but also on its activity. To assess the potential performance of a herbicide tolerance trait a tolerance index (TI) is calculated using the following formula: […]
(§9) Easy comparison and ranking of each trait is enabled by normalizing tolerance indexes on Arabidopsis wild-type HPPD.

Assay [2] deals with T2, Hordeum HPPD (SEQ ID NO:2) (Hordeum vulgare, UniProt O48604, A164G/R146V/R147D/R148G).
T2 construct: subcloned into a modified pET24D (Novagen) expression vector resulting in N-terminally His-tagged expression constructs; His tag (N); made in house; host or cells: E. coli BL21 (DE3)
The assay can be described thus: HPPD activity assay (HGA by HPLC), wildtype enzyme. The class given is biochemical. The note with it: Hordeum enzyme. On the procedure: as §1, §2, §3, §4, §5, §6, §7, §8, §9

For assay [3], the system named is Arabidopsis wild-type control plants. Description: Arabidopsis germination/growth inhibition assay in 48-well plates. It counts as in vivo, Arabidopsis thaliana. The note with it: plant growth IC50 relative to wildtype. On the procedure:
(§10) Tolerance to N-heterocyclyl-arylcarboxamides can also be assessed in Arabidopsis. In this case transgenic Arabidopsis thaliana plants are assayed for improved tolerance to N-heterocyclyl-arylcarboxamides in 48-well plates. Seeds are surface sterilized by stirring for 5 min in ethanol+water (70+30 by volume), rinsing one time with ethanol+water (70+30 by volume) and two times with a sterile, deionized water. The seeds are resuspended in 0.1% agar dissolved in water (w/v). Four to five seeds per well are plated on solid nutrient medium consisting of half-strength Murashige Skoog nutrient solution, pH 5.8 (Murashige and Skoog (1962) Physiologia Plantarum 15: 473-497). Compounds are dissolved in dimethylsulfoxid (DMSO) and added to the medium prior solidification (final DMSO concentration 0.1%). Multi well plates are incubated in a growth chamber at 22° C., 75% relative humidity and 110 μmol Phot*m-2*s-1 with 14:10 h light: dark photoperiod. Seven to ten days after seeding growth inhibition is evaluated by comparison to wild type plants. Tolerance factor is calculated by dividing the plant growth IC50 value of transgenic plants containing a HPPD and/or HST sequence by that of wildtype plants.

In assay [4] the test system is transgenic Arabidopsis plants overexpressing HPPD (Seq ID: 53). Described as above. Conditions: plant growth IC50 of transgenic divided by wildtype; HPPD (Seq ID: 53) overexpression. It counts as in vivo, Arabidopsis thaliana. On the procedure: as §10
[5] abbreviates: apparent michaelis constant, read-out: Km [μM] (4-HPP).

T2 sequence (O48604 whole entry R146V/R147D/R148G/A164G): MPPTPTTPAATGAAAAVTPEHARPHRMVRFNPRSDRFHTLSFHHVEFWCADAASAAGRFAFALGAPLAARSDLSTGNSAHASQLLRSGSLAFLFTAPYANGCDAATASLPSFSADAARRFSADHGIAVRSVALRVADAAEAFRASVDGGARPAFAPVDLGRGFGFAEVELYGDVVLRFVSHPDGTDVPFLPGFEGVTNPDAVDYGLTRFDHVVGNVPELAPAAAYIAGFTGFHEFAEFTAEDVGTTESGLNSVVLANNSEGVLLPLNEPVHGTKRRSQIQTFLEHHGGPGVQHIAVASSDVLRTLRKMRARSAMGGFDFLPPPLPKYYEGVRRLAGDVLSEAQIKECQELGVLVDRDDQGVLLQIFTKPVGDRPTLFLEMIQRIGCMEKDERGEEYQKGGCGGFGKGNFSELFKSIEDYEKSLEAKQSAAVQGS

As for `O=C(O)C(=O)Cc1ccc(O)cc1` [Inhibitor 4-HPP, 4-hydroxyphenylpyruvate, reference compound], the Km (commonly the concentration of substrate that gives half-maximal velocity) in assay [1] (setting [5]) turned out to be 13 µM; in assay [2] (setting [5]), 26 µM. Besides, the kcat (as a rule, the number of substrate molecules converted per active site and unit of time at saturation) is 12.9 s⁻¹ in assay [1] (turnover number) and 11.5 s⁻¹ in assay [2] (turnover number).

As to `COc1nonc1NC(=O)c1ccc(S(C)(=O)=O)c(S(C)(=O)=O)c1C` [Inhibitor 2, N-(4-methoxy-1,2,5-oxadiazol-3-yl)-2-methyl-3,4-bis(methylsulfonyl)benzamide], the results for the “Tolerance factor towards Inhibitor 2” value in assay [3] and in assay [4] were 1 and 12, respectively.
